Counter-ions that a name gives are not always drawn.
Key:
human factor Xa = target: T1, human factor Xa (Homo sapiens, UniProt P00742); experiment: Factor Xa assay (Test 1, a.), chromogenic substrate S-2765; assay type: biochemical
T1 construct: purchased Enzyme Research Laboratories, Inc; South Bend, Ind
Experimental: Purified enzymes are used in chromogenic assays. To determine the inhibition constant Ki, the IC50 value is corrected for competition with substrate using the formula
Ki'IC50×(1/{1+((substrate concentration)/substrate Km)})
wherein Km is the Michaelis-Menten constant (Chen and Prusoff, Biochem. Pharmacol. 22 (1973), […] which is incorporated herein by reference).
TBS-PEG buffer (50 mM Tris-Cl, pH 7.8, 200 mM NaCl, 0.05% (w/v) PEG-8000, 0.02% (w/v) NaN3) is used for this assay.
The assay is performed by pre-incubating the compound of formula I plus enzyme for 10 min. Then the assay is initiated by adding substrate to obtain a final volume of 100 μl. The initial velocity of chromogenic substrate hydrolysis is measured by the change in absorbance at 405 nm using a Bio-tek Instruments kinetic plate reader (Ceres UV900HDi) at 25° C. during the linear portion of the time course (usually 1.5 min after addition of substrate). The concentration of inhibitor that causes a 50% decrease in the rate of substrate hydrolysis is predicted by linear regression after plotting the relative rates of hydrolysis (compared to the uninhibited control) versus the log of the concentration of the compound of formula I. The enzyme concentration is 0.5 nM and substrate concentration is 140 μM.
The inhibition constants were determined as described above (Test 1, a., Factor Xa Assay).

factor Xa = settings: values of known factor Xa inhibitors stated in the background; cited from earlier work

T1 sequence (P00742 235-488 limits assumed): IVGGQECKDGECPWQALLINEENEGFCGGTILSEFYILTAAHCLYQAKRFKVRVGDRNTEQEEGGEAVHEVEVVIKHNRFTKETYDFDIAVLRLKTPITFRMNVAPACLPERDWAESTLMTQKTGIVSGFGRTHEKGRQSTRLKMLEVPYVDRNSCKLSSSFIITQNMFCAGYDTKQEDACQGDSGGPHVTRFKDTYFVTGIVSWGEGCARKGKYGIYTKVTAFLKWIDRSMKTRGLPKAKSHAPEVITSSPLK
T1 sequence (P00742 41-179 partner limits assumed): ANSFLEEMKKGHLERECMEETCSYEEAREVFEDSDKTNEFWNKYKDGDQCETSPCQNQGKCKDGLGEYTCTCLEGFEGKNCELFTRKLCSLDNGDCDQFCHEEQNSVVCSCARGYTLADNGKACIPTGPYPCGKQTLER

## N=C(N)c1ccc(C(=O)N2CCc3c(n(Cc4cccc(C(=N)N)c4)c4ccccc34)C2)cc1 [Example 84, 2-(4-Amidino-benzoyl)-9-(3-amidino-benzyl)-1,2,3,4-tetrahydro-9H-pyrido[3,4-b]indole trifluoroacetic acid salt]
Human factor Xa
  Ki: 900 nM

## N=C(N)c1ccc(CNC(=O)c2cc3c(O)cccc3n2Cc2cccc(C(=N)N)c2)cc1.O=C(O)C(F)(F)F.O=C(O)C(F)(F)F [Example 78, 1-(3-Amidino-benzyl)-4-hydroxy-1H-indole-2-carboxylic acid 4-amidino-benzylamide trifluoroacetic acid salt]
Human factor Xa
  Ki: 210 nM
other
  melting point: 155 to 157 °C

## N=C(N)c1cccc(CNC(=O)c2c(Cl)c3ccccc3n2Cc2cccc(C(=N)N)c2)c1 [Example 115]
Human factor Xa
  Ki: 9 nM

## C[N+](C)(C)Cc1ccc(CNC(=O)c2cc3ccccc3n2Cc2cccc(C(=N)N)c2)cc1 [Example 6, [4-({[1-(3-Amidino-benzyl)-1H-indole-2-carbonyl]-amino}-methyl)-benzyl]-trimethyl-ammonium trifluoroacetate trifluoroacetic acid salt, trifluoroacetate trifluoroacetic acid …]
Human factor Xa
  Ki: 400 nM

## CC(=O)O.CC(=O)[O-].CC(C)(C)OC(=O)Nc1ccc2c(c1)cc(C(=O)NCc1ccc([N+](C)(C)C)cc1)n2Cc1cccc(C(=N)N)c1 [Example 58, [4-({[1-(3-Amidino-benzyl)-5-tert-butoxycarbonylamino-1H-indole-2-carbonyl]-amino}-methyl)-phenyl]-trimethyl-ammonium acetate acetic acid salt]
Human factor Xa
  Ki: 14 nM
other
  melting point: 146 °C (dec.)

## CN1CCC(C(NC(=O)c2cc3ccccc3n2Cc2cccc(C(=N)N)c2)c2ccc3cc(Cl)ccc3c2)CC1.O=C(O)C(F)(F)F.O=C(O)C(F)(F)F (racemic) [Example 27, (RS)-1-(3-Amidino-benzyl)-1H-indole-2-carboxylic acid ((6-chloro-2-naphthyl)-(1-methyl-piperidin-4-yl)-methyl)amide trifluoroacetic acid salt]
Human factor Xa
  Ki: 610 nM
other
  melting point: 110 to 120 °C

## CC(NC(=O)c1cc2ccccc2n1Cc1cccc(C(=N)N)c1)c1cc[n+](C)cc1 (racemic) [Example 2, (RS)-4-(1-{[1-(3-Amidino-benzyl)-1H-indole-2-carbonyl]-amino}-ethyl)-1-methylpyridinium trifluoroacetate trifluoroacetic acid salt, trifluoroacetate trifluoroacetic acid …]
Human factor Xa
  Ki: 100 nM

## tick anticoagulant peptide (YNRLCIKPRDWIDECDSNEGGERAYFRNGKGGCDSFWICPEDHTGADYYSSYRDCFNACI; UniProt P17726 1-60, looked up) [TAP]
Factor Xa
  Ki: ~0.5 nM

## COC(=O)c1cccc(CNC(=O)c2cc3c(O)cccc3n2Cc2cccc(C(=N)N)c2)c1 [Example 132]
Human factor Xa
  Ki: 2000 nM

## N=C(N)c1ccc(C=C2CCCCC(=Cc3ccc(C(=N)N)cc3)C2=O)cc1 [2,7-bis-(4-amidinobenzylidene)-cycloheptanone, reference compound]
Factor Xa
  Ki: ~20 nM

## C[N+](C)(C)c1ccc(CNC(=O)c2cc3ccccc3n2Cc2cccc(C(=N)N)c2)cc1 [Example 4, [4-({[1-(3-Amidino-benzyl)-1H-indole-2-carbonyl]-amino}-methyl)-phenyl]-trimethyl-ammonium trifluoroacetate trifluoroacetic acid salt, trifluoroacetate trifluoroacetic acid …]
Human factor Xa
  Ki: 90 nM

## C[N+](C)(C)c1ccc(CNC(=O)c2c(Cl)c3ccccc3n2Cc2cccc(C(=N)N)c2)cc1 [Example 106]
Human factor Xa
  Ki: 40 nM

## C[C@@H](NC(=O)c1cc2cc(OCc3ccccc3)ccc2n1Cc1cccc(C(N)=S)c1)c1ccccc1 [21(4), (R)-5-Benzyloxy-1-(3-thiocarbamoyl-benzyl)-1H-indole-2-carboxylic acid (1-phenyl-ethyl)amide]
Human factor Xa
  Ki: 4800 nM

## COc1cccc2c1cc(C(=O)NC(c1ccccc1)c1cc[n+](C)cc1)n2Cc1cccc(C(=N)N)c1.O=C(O)C(F)(F)F.O=C([O-])C(F)(F)F (racemic) [Example 24, (RS)-4-({[1-(3-Amidino-benzyl)-4-methoxy-1H-indole-2-carbonyl]-amino}-phenyl-methyl)-1-methyl-pyridinium trifluoroacetate trifluoroacetic acid salt, trifluoroacetate trifluoroacetic acid …]
Human factor Xa
  Ki: 110 nM

## Cc1cccc2c1cc(C(=O)NCc1ccc([N+](C)(C)C)cc1)n2Cc1cccc(C(=N)N)c1.O=C(O)C(F)(F)F.O=C([O-])C(F)(F)F [Example 35, [4-({[1-(3-Amidino-benzyl)-4-methyl-1H-indole-2-carbonyl]-amino}-methyl)-phenyl]-trimethyl-ammonium trifluoroacetate trifluoroacetic acid salt, trifluoroacetate trifluoroacetic acid …]
Human factor Xa
  Ki: 9 nM

## CC(=O)O.CC(=O)[O-].C[N+](C)(C)c1ccc(CNC(=O)c2cc3c(O)cccc3n2Cc2cccc(C(=N)N)c2)cc1 [Example 39, [4-({[1-(3-Amidino-benzyl)-4-hydroxy-1H-indole-2-carbonyl]-amino}-methyl)-phenyl]-trimethyl-ammonium acetate acetic acid salt]
Human factor Xa
  Ki: 7 nM
other
  melting point: 113 °C (dec.)

## N=C(N)c1cccc(Cn2c(C(=O)NC(c3ccccc3)c3ccncc3)cc3ccccc32)c1.O=C(O)C(F)(F)F.O=C(O)C(F)(F)F (racemic) [Example 23, (RS)-1-(3-Amidino-benzyl)-1H-indole-2-carboxylic acid α-(4-pyridyl)-benzyl amide trifluoroacetic acid salt]
Human factor Xa
  Ki: 7000 nM
other
  melting point: 88 to 92 °C

## N=C(N)c1cccc(Cn2c(C(=O)NCc3cc(Cl)cc(Cl)c3)cc3c(O)cccc32)c1 [Example 120]
Human factor Xa
  Ki: 4.8 nM

## N=C(N)NCCC[C@H](NC(=O)c1cc2ccccc2n1Cc1ccc(C(=N)N)cc1)C(N)=O [Example 81, 1-(4-Amidinobenzyl)-1H-indole-2-carbonyl-L-arginyl amide trifluoroacetic acid salt]
Human factor Xa
  Ki: 63000 nM

## C[N+](C)(C)c1ccc(CNC(=O)c2cc3cc([N+](=O)[O-])ccc3n2Cc2cccc(C(=N)N)c2)cc1.O=C(O)C(F)(F)F.O=C([O-])C(F)(F)F
other
  melting point: 120 °C (dec.)

## Cc1cccc2c1cc(C(=O)NCc1ccc([N+](C)(C)Cc3ccccc3)cc1)n2Cc1cccc(C(=N)N)c1.O=C(O)C(F)(F)F.O=C([O-])C(F)(F)F
other
  melting point: 113 °C (dec.)

## Cc1cc(CNC(=O)c2cc3c(O)cccc3n2Cc2cccc(C(=N)N)c2)cc(C(F)(F)F)c1 [Example 112]
Human factor Xa
  Ki: 13 nM

## Cc1cccc2c1cc(C(=O)NCc1cccc(C(=N)N)c1)n2Cc1cccc(C(=N)N)c1.O=C(O)C(F)(F)F.O=C(O)C(F)(F)F [Example 47, 1-(3-Amidino-benzyl)-4-methyl-1H-indole-2-carboxylic acid 3-amidino-benzyl amide trifluoroacetic acid salt]
Human factor Xa
  Ki: 7 nM
other
  melting point: 242 to 243 °C

## N/C(=N\O)c1cccc(COC(=O)c2cc3ccccc3n2Cc2cccc(/C(N)=N/O)c2)c1 [Example 53, 1-(3-Hydroxyamidino-benzyl)-1H-indole-2-carboxylic acid (3-hydroxyamidino-benzyl)ester]
other
  melting point: 114 to 116 °C

## N=C(N)c1cccc(Cn2c(C(=O)NCc3ccc(Cl)cc3)cc3ccccc32)c1.O=C(O)C(F)(F)F
other
  melting point: 230 °C (dec.)

B1: antistasin (protein, UniProt P15358 18-136, looked up)
Antistasin: QGPFGPGCEEAGCPEGSACNIITDRCTCSGVRCRMHCPHGFQRSRYGCEFCKCRLEPMKATCDISECPEGMMCSRLTNKCDCKIDINCRKTCPNGLKRDKLGCEYCECRPKRKLIPRLS
Factor Xa
  Ki: 0.05 nM

From patent US6337344B1, “Indole derivatives as inhibitors or factor Xa” (Aventis Pharma Deutschland GmbH, priority 1997, dated 2002)
